Where a name gives a salt, the structure may show the parent alone.
Tests used:
serotonin 1A receptor = target: T1, serotonin 1A receptor (Rattus norvegicus, UniProt P19327); assay: Binding test on [3H] 8-hydroxy-dipropylaminotetralin, hippocampus receptor fraction; parameters: species or system SD rats; settings: rat hippocampus receptor fraction, 0.5 nM [3H] 8-OH-DPAT, room temperature 30 min; read-out: 5HT1
T1 construct: To the receptor fraction of the hippocampus were added a test compound and 0.5 nM of [^3H]; 8-hydroxy-dipropylaminotetralin; from tissue; host or cells: rat hippocampus membrane fraction
T1 sequence (P19327 1-422): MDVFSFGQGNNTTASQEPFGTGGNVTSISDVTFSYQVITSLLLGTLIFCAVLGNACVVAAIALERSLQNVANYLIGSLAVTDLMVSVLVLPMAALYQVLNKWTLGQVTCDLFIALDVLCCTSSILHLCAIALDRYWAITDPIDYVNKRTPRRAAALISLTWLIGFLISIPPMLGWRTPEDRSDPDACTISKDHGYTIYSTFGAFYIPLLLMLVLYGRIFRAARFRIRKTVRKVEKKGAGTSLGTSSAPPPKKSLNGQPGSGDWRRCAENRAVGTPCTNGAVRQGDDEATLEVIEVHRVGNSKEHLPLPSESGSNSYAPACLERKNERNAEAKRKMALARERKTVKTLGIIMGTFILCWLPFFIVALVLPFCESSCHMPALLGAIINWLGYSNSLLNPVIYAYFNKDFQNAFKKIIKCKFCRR

serotonin 2 receptor = target: T2, serotonin 2 receptor (Rattus norvegicus, UniProt P14842); assay: Binding test on [3H] ketanserin, cerebral cortex receptor fraction; parameters: species or system SD rats; settings: 0.3 nM [3H] ketanserin, 37° C. 15 min, read-out: 5HT2
T2 construct: To the receptor fraction of the cerebral cortex were added a test compound and 0.3 nM of [^3H] ketanserin; from tissue; host or cells: rat cerebral cortex membrane fraction
T2 sequence (P14842 whole entry): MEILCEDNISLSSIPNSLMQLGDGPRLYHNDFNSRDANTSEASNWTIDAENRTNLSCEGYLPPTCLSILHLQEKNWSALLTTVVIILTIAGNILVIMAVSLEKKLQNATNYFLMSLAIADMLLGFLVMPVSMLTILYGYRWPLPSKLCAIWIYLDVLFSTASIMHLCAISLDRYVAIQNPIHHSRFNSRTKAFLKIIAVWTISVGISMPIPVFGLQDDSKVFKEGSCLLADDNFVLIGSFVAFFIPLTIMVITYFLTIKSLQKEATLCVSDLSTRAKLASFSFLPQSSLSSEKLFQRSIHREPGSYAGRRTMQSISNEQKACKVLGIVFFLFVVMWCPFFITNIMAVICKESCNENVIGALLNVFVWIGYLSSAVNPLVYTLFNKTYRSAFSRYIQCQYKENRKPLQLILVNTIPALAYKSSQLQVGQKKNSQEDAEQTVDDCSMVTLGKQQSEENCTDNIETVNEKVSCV

Ki (serotonin 1A receptor)	Ki (serotonin 2 receptor)	Structure (SMILES)
10.7 nM	84.7 nM	CCN1CCN(c2nc(-c3ccc(CO)s3)cc3ccccc23)CC1 [Example 162, 1-(1-ethylpiperazin-4-yl)-3-(2-hydroxymethylthiophen-5-yl)isoquinoline dihydrochloride]
25.1 nM	19.2 nM	CCN1CCN(c2nc(-c3ccc(CCO)s3)cc3ccccc23)CC1 [Example 163, 1-(1-ethylpiperazin-4-yl)-3-[2-(2-hydroxyethyl)thiophen-5-yl]isoquinoline dihydrochloride]
9.38 nM	11.9 nM	CCC(O)c1cc(-c2cc3ccccc3c(N3CCN(CC)CC3)n2)cs1 (stereo not drawn) [Example 164, 1-(1-ethylpiperazin-4-yl)-3-[2-(1-hydroxypropyl)thiophen-4-yl]isoquinoline hydrochloride]
32.6 nM	25.4 nM	CCC(O)c1ccc(-c2cc3ccccc3c(N3CCN(CC)CC3)n2)s1 (stereo not drawn) [Example 165, 1-(1-Ethylpiperazin-4-yl)-3-[2-(1-hydroxypropyl)thiophen-5-yl)isoquinoline hydrochloride]
3 nM	25.4 nM	CCC(O)c1ncc(-c2cc3ccccc3c(N3CCN(CC)CC3)n2)s1 (stereo not drawn) [Example 170, 1-(1-ethylpiperazin-4-yl)-3-[(1-hydroxypropyl)thiazol-5-yl]isoquinoline dihydrochloride]
4.7 nM	21.9 nM	CCN1CCN(c2nc(-c3cnc(CCCO)s3)cc3ccccc23)CC1 [Example 171, 1-(1-ethylpiperazin-4-yl)-3-[2-(3-hydroxypropyl)thiazol-5-yl]isoquinoline oxalate]

The remaining lines, values behind:

Structure (SMILES)	Ki (serotonin 1A receptor)	Ki (serotonin 2 receptor)
CCN1CCN(c2nc(-c3ccc(N4CCC(O)CC4)nc3)cc3ccccc23)CC1 [Example 152, 1-(4-ethylpiperazin-1-yl)-3-[2-(4-hydroxypiperidin-1-yl)pyridin-5-yl]isoquinoline trihydrochloride]	6.1 nM	12.4 nM
CCN1CCN(c2nc(-c3ccc(N4CCC(OC)CC4)nc3)cc3ccccc23)CC1 [Example 153, 1-(4-ethylpiperazin-1-yl)-3-[2-(4-methoxypiperidin-1-yl)pyridin-5-yl]isoquinoline trihydrochloride]	12.9 nM	1.5 nM
CCN1CCN(c2nc(-c3ccc(N4CCC(CO)CC4)nc3)cc3ccccc23)CC1 [Example 154, 1-(4-ethylpiperazin-1-yl)-3-[2-(4-hydroxymethylpiperidin-1-yl)pyridin-5-yl]isoquinoline trihydrochloride]	1.6 nM	8.8 nM
CCN1CCN(c2nc(-c3ccc(C4=CCOCC4)nc3)cc3ccccc23)CC1 [Example 155, 3-[2-(5,6-dihydro-2H-pyran-4-yl)pyridin-5-yl]-1-(4-ethylpiperazin-1-yl)isoquinoline oxalate]	20 nM	4.34 nM
CCN1CCN(c2nc(-c3ccc(C4CCOCC4)nc3)cc3ccccc23)CC1 [Example 156, 3-[2-(tetrahydropyran-4-yl)pyridin-5-yl]-1-(4-ethylpiperazin-1-yl)isoquinoline oxalate]	10.9 nM	0.01 nM
CCN1CCN(c2nc(-c3ccc(OCCCc4cccnc4)cc3)cc3ccccc23)CC1 [Example 157, 3-[4-[3-(3-pyridyl)propoxy]phenyl]-1-(4-ethylpiperazin-1-yl)isoquinoline hydrochloride]	29.7 nM	4.9 nM
CCN1CCN(c2nc(N3CCN(c4ccccc4)CC3)cc3ccccc23)CC1 [Example 158, 1-(1-ethylpiperazin-4-yl)-3-(1-phenylpiperazin-4-yl)isoquinoline]	0.41 nM	1.08 nM
CCN1CCN(c2nc(N3CCN(c4ccccn4)CC3)cc3ccccc23)CC1 [Example 159, 1-(1-ethylpiperazin-4-yl)-3-[1-(2-pyridyl)piperazin-4-yl]isoquinoline]	0.65 nM	13.2 nM
CCN1CCN(c2nc(-c3csc(CO)c3)cc3ccccc23)CC1 [Example 161, 1-(1-ethylpiperazin-4-yl)-3-(2-hydroxymethylthiophen-4-yl)isoquinoline dihydrochloride]	10.7 nM	23.8 nM
